Test results taken from PMC7162861, “Synthesis, cytotoxicity, pharmacokinetic profile, binding with DNA and BSA of new imidazo[1,2-a]pyrazine-benzo[d]imidazol-5-yl hybrids” (Scientific Reports, 2020).
Read-outs that look alike come from different tables or passages of the source.

Key:
[1] = target: bovine serum albumin (BSA) (Bos taurus, UniProt P02769); assay: BSA binding, fluorescence quenching (Stern-Volmer, Scatchard)
Description: (§1) The stock solution of compound 31 (10^−3 M) was prepared in DMSO and diluted to required concentration using appropriate buffer solution. Calf thymus (CT)-DNA was dissolved in 10 mM Tris buffer of pH 7.4 having 1 mM EDTA at room temperature. The purity of DNA solution was determined by using the ratio of absorbance at 260 nm and 280 nm wavelength. Extinction coefficient 6600 M^−1 cm^−1 of single nucleotide at 260 nm was used to determine the concentration of the DNA solution. The stock solution of BSA (10^−3 M) was prepared in distilled water and stored at 4 °C temperature.
[…] The dissociation constant of compound 31 was estimated by titrating the complex of compound 31 (10 µM) and BSA (10 µM) with increasing concentration of ibuprofen (0–15 µM), upon excitation at 280 nm. All emission spectra were recorded in the range of 200 to 800 nm.
(§2) Binding parameters KSV and Kq were calculated using the Stern-Volmer equation (Eq. 2):2 F0/F=1+Ksv[Analyte]=1+Kqτo[Analyte]
(§3) Fo denotes the emission intensity of derivative 31/BSA free from analyte (CT-DNA/ derivative 31), whereas, F denotes the emission intensity of derivative 31/BSA bound with analyte (CT-DNA/derivative 31). The values of KSV and Kq were determined from the plot of Fo/F vs. [analyte].
(§4) The binding parameters Kbin and n were determined using Scatchard equation (Eq. 3):3 logF0−F/F=logKbin+nlog[analyte]
(§5) Fo and F denote similar factors as those of the above Stern-Volmer equation. The values of Kbin and n were determined from the plot of log (Fo − F)/F vs. log [analyte].

[2] = test system: NCI-60 cancer cell panels; assay: NCI cytotoxicity screen, full panel summary; format: cell-based
Description: Cytotoxicity was performed at National Cancer Institute (NCI), Bethesda, USA as per their protocols.

CT-DNA = CT-DNA binding, fluorescence quenching (Stern-Volmer, Scatchard); parameters: species or system calf
Description: as §1
In the case of BSA experiments, fluorescence emission spectra were performed for BSA (10 µM) with increasing concentration of compound 31 (0–10 µM) in phosphate buffer (pH 7.4) at room temperature upon excitation at 280 nm. The dissociation constant of compound 31 was estimated by titrating the complex of compound 31 (10 µM) and BSA (10 µM) with increasing concentration of ibuprofen (0–15 µM), upon excitation at 280 nm. All emission spectra were recorded in the range of 200 to 800 nm.
as §2, §3, §4, §5

bovine serum albumin (BSA), sequence (P02769 25-607): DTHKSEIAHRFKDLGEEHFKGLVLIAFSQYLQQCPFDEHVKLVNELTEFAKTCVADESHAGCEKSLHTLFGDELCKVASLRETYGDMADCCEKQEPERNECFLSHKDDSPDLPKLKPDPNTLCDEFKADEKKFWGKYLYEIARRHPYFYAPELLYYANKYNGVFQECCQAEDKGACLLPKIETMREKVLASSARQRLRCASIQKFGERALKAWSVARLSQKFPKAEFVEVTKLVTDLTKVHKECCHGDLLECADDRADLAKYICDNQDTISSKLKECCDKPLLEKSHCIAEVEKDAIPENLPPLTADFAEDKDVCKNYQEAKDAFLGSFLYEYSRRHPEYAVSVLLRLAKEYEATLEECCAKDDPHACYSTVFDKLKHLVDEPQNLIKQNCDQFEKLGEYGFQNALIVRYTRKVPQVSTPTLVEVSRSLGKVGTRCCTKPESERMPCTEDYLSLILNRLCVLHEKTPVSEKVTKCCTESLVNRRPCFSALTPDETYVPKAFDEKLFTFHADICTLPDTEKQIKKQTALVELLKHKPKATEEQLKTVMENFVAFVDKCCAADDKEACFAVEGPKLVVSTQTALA

c1cn2cc(-c3ccc4ncn(C5CCCCC5)c4c3)nc(-c3ccc4c(c3)ncn4C3CCCCC3)c2n1 [Compound 31, 8-(1-cyclohexyl-1H-benzo[d]imidazol-5-yl)-6-(1-cyclohexyl-1H-benzo[d]imidazol-6-yl)imidazo[1,2-a]pyrazine]
Stern-Volmer quenching constant (Ksv) ([1]; BSA): 104000 M⁻¹ | apparent bimolecular quenching constant (Kq) ([1]; BSA): 1.04e+13 M⁻¹ s⁻¹ | quenching of BSA emission band at 350 nm ([1]; BSA 10 µM, compound 0–16 µM): up to 70% | Kbin ([1]; BSA, Scatchard): 47000 M⁻¹ | n (number of binding sites) ([1]; BSA, Scatchard): 0.92 | Kd ([1]; BSA, Scatchard, read-out: binding constant (Kbin) (converted)): 21.3 µM | KSV ([1]; BSA, Stern-Volmer constant): 104000 M⁻¹ | Kq ([1]; BSA, apparent bimolecular quenching constant): 1.04e+13 M⁻¹ s⁻¹ | GI50 ([2]; Homo sapiens, read-out: Full panel mean-graph midpoint (MG-MID) GI50): 2.12 µM | GI50 ([2]; Homo sapiens, read-out: GI50 range over nine panels of cell lines): 0.8 to 2.87 µM | CC50 ([2]; Homo sapiens, average over all cancer cell lines, five dose, read-out: Full panel mean-graph midpoint (MG-MID) LC50): 6.63 µM | Full panel mean-graph midpoint (MG-MID) TGI ([2]; average over all cancer cell lines, five dose): 4.73 µM | number of cell lines with cytostatic effect ([2]; single dose 10 µM): 8 | number of cell lines with cytotoxic effect ([2]; single dose 10 µM): 51 | Ksv (Stern-Volmer constant) (CT-DNA; CT-DNA, pH 7.4, 298 K): 9300 M⁻¹ | Kq (apparent bimolecular quenching constant) (CT-DNA; CT-DNA, τo = 10^−8 s): 9.3e+11 M⁻¹ s⁻¹ | Kbin (CT-DNA; CT-DNA, Scatchard): 95800 M⁻¹ | binding constant (Kbin) (CT-DNA; CT-DNA, Scatchard): 95800 M⁻¹ | n (number of binding sites) (CT-DNA; CT-DNA, Scatchard): 1.21 | KSV (CT-DNA; CT-DNA, Stern-Volmer constant): 9300 M⁻¹ | Kq (CT-DNA; CT-DNA, apparent bimolecular quenching constant): 9.3e+11 M⁻¹ s⁻¹ | quenching of fluorescence intensity (CT-DNA; compound 5 µM, CT-DNA 0–50 µM): 75%
